Laboratory results as given in patent US7468391B2, “Methods for treating retinoid responsive disorders using selective inhibitors of CYP26A and CYP26B” (Allergan, Inc., priority 2003, dated 2008).

Key:
RAR β [1] = molecular target: T1, RAR β (Homo sapiens, UniProt P10826); experiment: RAR β EC50/(efficacy); format: cell-based; details: value in brackets of cell EC50/(EFFICACY)/Kd
T1 sequence (P10826 1-455): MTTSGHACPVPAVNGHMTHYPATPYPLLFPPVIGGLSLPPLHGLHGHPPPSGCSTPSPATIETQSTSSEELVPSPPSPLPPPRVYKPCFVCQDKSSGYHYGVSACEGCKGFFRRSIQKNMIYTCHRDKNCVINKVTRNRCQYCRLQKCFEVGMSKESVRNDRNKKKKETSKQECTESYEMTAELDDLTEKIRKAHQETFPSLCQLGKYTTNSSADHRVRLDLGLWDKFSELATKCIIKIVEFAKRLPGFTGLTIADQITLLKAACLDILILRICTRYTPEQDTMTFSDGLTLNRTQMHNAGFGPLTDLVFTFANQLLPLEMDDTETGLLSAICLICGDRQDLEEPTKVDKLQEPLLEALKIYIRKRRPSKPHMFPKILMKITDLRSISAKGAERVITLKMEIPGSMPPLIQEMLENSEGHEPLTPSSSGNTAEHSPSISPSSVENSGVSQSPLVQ

RAR α = molecular target: T2, RAR α (Homo sapiens, UniProt P10276); experiment: RAR α Kd; format: binding; details: last item of cell EC50/(EFFICACY)/Kd
T2 sequence (P10276 1-462): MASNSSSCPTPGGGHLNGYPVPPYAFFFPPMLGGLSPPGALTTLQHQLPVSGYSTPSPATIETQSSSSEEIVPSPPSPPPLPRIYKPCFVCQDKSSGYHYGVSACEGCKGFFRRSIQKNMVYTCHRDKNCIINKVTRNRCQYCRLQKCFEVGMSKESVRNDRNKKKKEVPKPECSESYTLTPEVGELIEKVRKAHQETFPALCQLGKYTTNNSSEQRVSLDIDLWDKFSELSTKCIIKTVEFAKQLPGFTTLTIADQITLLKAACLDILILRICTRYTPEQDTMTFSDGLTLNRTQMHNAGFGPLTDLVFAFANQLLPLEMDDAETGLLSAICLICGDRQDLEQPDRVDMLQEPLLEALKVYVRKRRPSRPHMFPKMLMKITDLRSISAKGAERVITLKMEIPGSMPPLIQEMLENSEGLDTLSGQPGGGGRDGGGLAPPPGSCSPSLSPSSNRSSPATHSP

RAR γ = molecular target: T3, RAR γ (Homo sapiens, UniProt P13631); experiment: RAR γ Kd; format: binding; details: last item of cell EC50/(EFFICACY)/Kd
T3 sequence (P13631 1-454): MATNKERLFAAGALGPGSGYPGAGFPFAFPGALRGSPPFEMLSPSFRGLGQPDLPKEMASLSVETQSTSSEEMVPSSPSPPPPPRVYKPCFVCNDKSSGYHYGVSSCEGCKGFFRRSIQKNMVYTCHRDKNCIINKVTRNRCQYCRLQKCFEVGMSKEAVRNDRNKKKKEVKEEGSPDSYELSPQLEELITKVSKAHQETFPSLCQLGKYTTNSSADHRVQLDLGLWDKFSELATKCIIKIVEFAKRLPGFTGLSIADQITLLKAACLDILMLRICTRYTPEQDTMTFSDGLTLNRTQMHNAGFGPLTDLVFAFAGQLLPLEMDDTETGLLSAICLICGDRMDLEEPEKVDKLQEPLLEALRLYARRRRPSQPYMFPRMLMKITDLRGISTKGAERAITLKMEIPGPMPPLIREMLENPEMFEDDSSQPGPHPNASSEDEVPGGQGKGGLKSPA

RAR β [2] = molecular target: T1, RAR β; experiment: RAR β Kd; format: binding; details: last item of cell EC50/(EFFICACY)/Kd
CYP26A (P450RAI-1) = molecular target: T4, CYP26A (P450RAI-1) (Homo sapiens, UniProt O43174); experiment: Cell-based inhibition of RA metabolism in CYP26A stably transfected HeLa cells; details: stably transfected HeLa cells, [3H]-RA, 3 hours at 37° C.; read-out: P450RAI-1 Whole cell IC50
T4 construct: expressed in transfected cells; host or cells: HeLa
T4 sequence (O43174 1-497): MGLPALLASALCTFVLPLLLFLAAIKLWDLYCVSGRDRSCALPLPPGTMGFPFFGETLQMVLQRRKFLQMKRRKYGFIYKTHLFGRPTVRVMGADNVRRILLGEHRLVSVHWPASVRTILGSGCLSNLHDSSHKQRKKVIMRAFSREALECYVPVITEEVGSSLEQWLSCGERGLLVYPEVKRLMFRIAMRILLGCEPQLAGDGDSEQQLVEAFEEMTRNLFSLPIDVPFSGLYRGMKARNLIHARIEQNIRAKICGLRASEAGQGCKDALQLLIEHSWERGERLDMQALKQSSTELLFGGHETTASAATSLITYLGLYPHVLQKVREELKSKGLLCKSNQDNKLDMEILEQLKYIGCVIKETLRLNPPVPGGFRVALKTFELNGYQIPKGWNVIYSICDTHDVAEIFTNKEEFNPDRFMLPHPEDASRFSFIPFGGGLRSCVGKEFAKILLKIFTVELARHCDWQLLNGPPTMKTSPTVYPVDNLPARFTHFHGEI
Description: (§1) In brief, CYP26A or CYP26B can be stably transfected into HeLa cells. Exponentially growing cells are harvested by incubating in trypsin. Cells are then washed and plated in a 48-well plate at 5×10^5 cells in 0.2 ml MEM medium containing 10% FBS and 0.05 μCi [^3H]-RA in the presence or absence of increasing concentrations of the test compounds. The compounds are diluted in 100% DMSO and then added in triplicate wells at either 10, 1 or 0.1 μM final concentration. As a positive control for RA metabolism inhibition, cells are also incubated with ketoconazole at 100, 10 and 1 μM. Cells are incubated for 3 hours at 37 degrees C. The retinoids are then extracted using the procedure of Bligh et al., Canadian Journal of Biochemistry 37: 911-917 (1959), modified by using methylenechloride instead of chloroform. This publication by Bligh et al., is specifically incorporated herein by reference. The water soluble radioactivity is quantified using a β scintillation counter, and IC50 values are determined.
(§2) CYP26A and CYP26B stably transfected HeLa cells were maintained in 100 mm tissue culture dishes in MEM medium containing 10% FBS and 100 μg/ml hygromycin.
(§3) Exponentially growing cells were harvested by incubating in trypsin. Cells were then washed with 1×PBS and plated in a 48-well plate at 5×10^5 cells in 0.2 ml MEM medium containing 10% FBS and 0.05 μCi [^3H]-RA in the presence or absence of increasing concentrations of the test compounds. The compounds were diluted in 100% DMSO and then added to triplicate wells at final concentrations of 10, 1 or 0.1 μM. As a positive control for RA metabolism inhibition, cells were also incubated with ketoconazole at 100, 10 and 1 μM. Cells were incubated for 3 hours at 37° C. The retinoids were then extracted using a modified Bligh and Dyer procedure (Bligh and Dyer, supra (1959)), in which methylene-chloride, as opposed to chloroform, was used, and the aqueous soluble radioactivity quantified using a β-scintillation counter. ID50 values represent the concentration of inhibitor required to inhibit RA metabolism by 50 percent and were derived manually from log-transformed data.

CYP26B (P450RAI-2) = molecular target: T5, CYP26B (P450RAI-2) (Homo sapiens, UniProt Q9NR63); experiment: Cell-based inhibition of RA metabolism in CYP26B stably transfected HeLa cells; details: stably transfected HeLa cells, [3H]-RA, 3 hours at 37° C.; read-out: P450RAI-2 Whole cell IC50
T5 construct: expressed in transfected cells; host or cells: HeLa
T5 sequence (Q9NR63 1-512): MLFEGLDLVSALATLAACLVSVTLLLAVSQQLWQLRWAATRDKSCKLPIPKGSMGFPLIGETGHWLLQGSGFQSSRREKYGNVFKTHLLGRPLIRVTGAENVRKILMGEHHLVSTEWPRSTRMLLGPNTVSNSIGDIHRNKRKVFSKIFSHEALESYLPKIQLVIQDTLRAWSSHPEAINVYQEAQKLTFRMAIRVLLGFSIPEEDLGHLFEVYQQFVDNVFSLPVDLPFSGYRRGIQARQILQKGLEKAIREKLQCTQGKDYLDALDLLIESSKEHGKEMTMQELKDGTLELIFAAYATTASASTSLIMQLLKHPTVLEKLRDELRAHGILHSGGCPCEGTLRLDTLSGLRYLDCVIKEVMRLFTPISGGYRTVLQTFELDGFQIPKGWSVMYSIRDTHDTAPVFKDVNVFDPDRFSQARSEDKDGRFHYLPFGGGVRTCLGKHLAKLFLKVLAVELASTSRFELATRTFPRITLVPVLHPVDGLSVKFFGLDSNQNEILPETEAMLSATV
Description: as §1, §2, §3

| Structure (SMILES) | RAR β (EFFICACY) (RAR β [1]) | Kd (RAR α) | Kd (RAR γ) | Kd (RAR β [2]) | IC50 (CYP26A (P450RAI-1)) | IC50 (CYP26B (P450RAI-2)) |
| --- | --- | --- | --- | --- | --- | --- |
| CCOC(=O)C1=CCC(C)(C)c2cc(C#Cc3ccc(CC(=O)O)c(F)c3)c(C)cc21 [Compound 56, 6-(4-Carboxymethyl-3-fluoro-phenylethynyl)-4,4,7-trimethyl-3,4-dihydro-naphthalene-1-carboxylic acid ethyl ester] | 30 | > 10 µM | > 10 µM | > 10 µM | 0.5 µM | – |
| CCOC(=O)C1=C(C)CC(C)(C)c2cc(C#Cc3ccc(CC(=O)O)c(F)c3)ccc21 [Compound 59, 6-(4-Carboxymethyl-3-fluoro-phenylethynyl)-2,4,4-trimethyl-3,4-dihydro-naphthalene-1-carboxylic acid ethyl ester] | 35 | > 10 µM | > 10 µM | 2.86 µM | 1.2 µM | > 10 µM |
| CN(C1CC1)C1CCC(C)(C)c2cc(C#Cc3ccc(C(C)(C)C(=O)O)cc3)ccc21 (stereo not shown) [Compound 52, 2-{4-[5-(Cyclopropyl-methyl-amino)-8,8-dimethyl-5,6,7,8-tetrahydro-naphthalen-2-ylethynyl]-phenyl}-2-methyl-propionic acid] | < 5 | > 10 µM | > 10 µM | > 10 µM | 0.4 µM | > 10 µM |
| CCOC(=O)c1cc(C#Cc2ccc(CC(=O)O)cc2)cc2c1C(N(C)C1CC1)CCC2(C)C (stereo not shown) [Compound 24, 3-(4-Carboxymethyl-phenylethynyl)-8-(cyclopropyl-methyl-amino)-5,5-dimethyl-5,6,7,8-tetrahydro-naphthalene-1-carboxylic acid ethyl ester] | 30 | 8.57 µM | 7.75 µM | 7.19 µM | 0.035 µM | 5 µM |
| COc1cc(C#Cc2ccc(CC(=O)O)cc2)cc2c1C(N(C)C1CC1)CCC2(C)C (stereo not shown) [Compound 25, {4-[5-(Cyclopropyl-methyl-amino)-4-methoxy-8,8-dimethyl-5,6,7,8-tetrahydro-naphthalen-2-ylethynyl]-phenyl}-acetic acid] | – | > 10 µM | 0.317 µM | > 10 µM | 0.1 µM | > 10 µM |
| CC(C(=O)O)c1ccc(C#Cc2cc(O)c3c(c2)C(C)(C)CC(C)(C)O3)cc1 (stereo not shown) [Compound 11, 2-[4-(8-Hydroxy-2,2,4,4-tetramethyl-chroman-6-ylethynyl)-phenyl]-propionic acid] | – | > 10 µM | > 10 µM | > 10 µM | 0.07 µM | 3 µM |

Next, values leading:

| RAR β (EFFICACY) (RAR β [1]) | Kd (RAR α) | Kd (RAR γ) | Kd (RAR β [2]) | IC50 (CYP26A (P450RAI-1)) | IC50 (CYP26B (P450RAI-2)) | Structure (SMILES) |
| --- | --- | --- | --- | --- | --- | --- |
| 15 | 0.957 µM | > 10 µM | 4.8 µM | 0.05 µM | > 10 µM | CC(C(=O)O)c1ccc(C#Cc2cc(CN(C)C3CC3)c3c(c2)C(C)(C)CC(C)(C)O3)cc1 (stereo not shown) [Compound 8, 2-(4-{8-[(Cyclopropyl-methyl-amino)-methyl]-2,2,4,4-tetramethyl-chroman-6-ylethynyl}-phenyl)-propionic acid] |
| 15 | > 10 µM | > 10 µM | > 10 µM | 0.007 µM | 0.2 µM | C=Cc1cc(C#Cc2ccc(CC(=O)O)cc2)cc2c1C(=O)CCC2(C)C [Compound 22, [4-(8,8-Dimethyl-5-oxo-4-vinyl-5,6,7,8-tetrahydro-naphthalen-2-ylethynyl)-phenyl]-acetic acid] |
| 20 | 5.65 µM | 8.53 µM | 3.49 µM | > 10 µM | 0.12 µM | Cc1ccc(CN(C)C2CC2)cc1C#Cc1ccc(/C=C/C(=O)O)cc1 [Compound 34, (E)-3-(4-{5-[(Cyclopropyl-methyl-amino)-methyl]-2-methyl-phenylethynyl}-phenyl)-acrylic acid] |
| – | > 10 µM | > 10 µM | > 10 µM | 0.04 µM | 2 µM | CN(Cc1cc(C#Cc2ccc(CC(=O)O)c(F)c2)cc2c1OC(C)(C)CC2(C)C)C1CC1 [Compound 7, (4-{8-[(Cyclopropyl-methyl-amino)-methyl]-2,2,4,4-tetramethyl-chroman-6-ylethynyl}-2-fluoro-phenyl)-acetic acid] |
| – | > 10 µM | > 10 µM | > 10 µM | 2.5 µM | > 10 µM | CC(C)OC(=O)c1ccc(C#Cc2ccc(CC(=O)O)c(F)c2)cc1CN(C)C1CC1 [Compound 39, 4-(4-Carboxymethyl-3-fluoro-phenylethynyl)-2-[(cyclopropyl-methyl-amino)-methyl]-benzoic acid isopropyl ester] |
